Where “and” joins values, the source holds several entries; their conditions need not be identical. Equal entries are not always repeated. Non-standard residues stand in square brackets, D forms with d. Residues, ends and D or L forms follow the SMILES beside them. *: point of attachment. boroGlu = O=C(O)CC[C@H](N*)B(O)O; Gly(cPr) = N[C@H](C(=O)O)C1CC1
What was measured:
[1] = test system: cylLL, cylLS, and cylA transcripts in C+ E. faecalis ATCC 29212; experiment: RT-qPCR of cylLL, cylLS and cylA transcripts; type: cell-based, Enterococcus faecalis
Procedure: Since the cytolysin BGC is often expressed in two transcripts because of the presence of a weak intergenic terminator between cylLL and cylM, primers and amplicons were selected for cylLL, cylLS and cylA[67].
The amounts of cylLL, cylLS, and cylA transcripts relative to the amount of 16S rRNA were determined by RT-qPCR. Amplicons and primers used to quantify cylLL, cylLS and 16S rRNA were identical to those previously reported. All primers are listed in Supplementary Table 3. Overnight cultures of E. faecalis ATCC 29212 were prepared as described in ‘Detection of CylLS” from extracts of E. faecalis’. Upon inoculation, samples were treated with 100 μM of 9 or vehicle. The samples were incubated at 37 °C for 20 h, then cells were collected by centrifugation (5000 g for 10 min). The supernatant was removed and the cells pellets were re-suspended in Lysis buffer (10 mM TrisHCl, 3 mg/mL lysozyme, pH = 7.8) at a concentration of 160 μL of Lysis buffer for 1 mL of overnight culture. The cells were incubated in Lysis buffer at room temperature for 15 min then RNA was extracted using a Monarch® Total RNA Miniprep Kit. Isolated RNA was immediately converted to cDNA using an iScript™ cDNA Synthesis Kit. cDNA was amplified using a SsoAdvanced Universal SYBR Green Supermix and a StepOnePlus Real-Time PCR System (Applied Biosystems). The expression level of each gene in each sample was determined by taking the difference between the CT of the amplification curve for the gene of interest (cylLL, cylLS or cylA) and the CT of the amplification curve for 16S rRNA, yielding ΔCT. ΔΔCT was determined by taking the difference between the ΔCT of the inhibitor treated sample and the ΔCT of the inhibitor-free control for each gene. Fold change in gene expression was calculature using Eq. (2)[76]. Four biological replicates were performed.2 Foldchangeingeneexpression=2^ΔΔCT

[2] = type: in vitro ADME, Enterococcus faecalis; settings: 100 µM, 37 °C, 20 h
Procedure: To investigate the stability of 9 in the presence of E. faecalis, cell extracts treated with 9 were tested for inhibitory activity. […] Cultures that were treated with 100 µM of 9 at 37 °C for 20 h gave extracts that inhibited the activity of CylA in vitro. The inhibitory activity of these extracts was about 3-fold less than a sample of fresh 9.
Similiarly, 9 was diluted to 100 µM in BHI that was inoculated with E. faecalis ATCC 29212 before incubating at 37 °C for 20 h. The overnight culture was flash frozen and lyophilized. The lyophilized samples were extracted with a volume of 90% methanol/10% water that was equal to the volume of the sample prior to lyophilization. The extract was assumed to have a concentration of 100 µM. […]
Human Serum + 9 Human Serum
Log(Concentration (µM)) Log(Concentration(µM))
Supplementary Figure 19. The stability of inhibitor 9 in the pres ence of human serum or C+ E. faecalis. A ) C y l A i nhibition activity of an extract of human s erum treated with 9 (100 μM) for 3 h at 37 ̊C. The resulting solution was used to determine the remaining activity of the inhibitor in a […]
CylA activity assay. […] This experiment was perform ed on three different samples of inhibitor (n = 3). […]
(also on this page, place not known: determined. inhibition CylA These IC 50 presence serum This performed A) Non-linear fitting v i/vo IC 50. […]

[3] = test system: CylLS” in C+ E. faecalis ATCC 29212; experiment: Detection of CylLS” from extracts of E. faecalis (LCMS); type: cell-based, Enterococcus faecalis; settings: for Concentration CylLS (Figure 8C), replicates 1-4: ATCC 29212 overnight culture extract; for Concentration CylLS (Figure 8C), avg: n = 4
Procedure: To determine if inhibitor 9 blocks the maturation of cytolysin in C+ E. faecalis, an LCMS method was developed to estimate the concentration of CylLS” in cell extracts. This method employed biosynthetically prepared ^15N,^13C-labeled CylLS” as an internal standard. Cultures of E. faecalis were treated with inhibitor 9 or vehicle then lyophilized and extracted with methanol.
An overnight culture of E. faecalis ATCC 29212 was diluted to an OD600 equal to 2.0 in BHI then further diluted 1000-fold in BHI. Inhibitor 9 or vehicle was added immediately after dilution and the inoculated samples were incubated with shaking at 37 °C for 20 h. Following incubation, a 400 µL aliquot of each sample was flash frozen and lyophilized. Each lyophilized sample was extracted with 400 µL of 90% methonal/10% water containing ^15N,^13C-labeled CylLS” (5.8 nM). Alternating rounds of water bath sonication and vortexing were used to homogenize the samples. Once homogenized, the samples were allowed to stand at room temperature for 1 h then were centrifuged at 16,000 g for 10 min, incubated at −20 °C for 1 h, and centrifuged at 16,000 g for 10 min. The supernatant was analyzed by LCMS using injection volumes of 5 µL. EIC corresponding to the exact masses of [M + 2H]^2+ and [M+Na+H]^2+ were integrated and the peak areas were added together giving the total CylLS” and internal standard responses. The concentration of CylLS” was estimated from the response ratio multiplied by the concentration of the internal standard.

[4] = 100 μM of 9, untreated control = 1.0

CC(=O)NCC(=O)N[C@@H](CC(=O)O)C(=O)N[C@H](C(=O)N[C@@H](CCC(N)=O)C(=O)N[C@@H](C)C(=O)N[C@@H](CCC(=O)O)B(O)O)C1CC1 [Compound 9] (Ac-GD[Gly(cPr)]QA-boroGlu)
Fold Change, gene CylA (Figure 8D), replicates [1, 4]: 0.01989 and 0.0236 and 0.00144 and 0.00137
Fold Change, gene CylLL (Figure 8D), replicates [1, 4]: 0.00585 and 0.2177 and 0.1852
Fold Change, gene CylLS (Figure 8D), replicates [1, 4]: 0.2335 and 0.2124 and 0.00397 and 0.00605
reduction in cylA transcripts ([1]; 100 μM, vs untreated control): 86 fold
reduction in cylLL transcripts ([1]; 100 μM, vs untreated control): 9-10 fold
reduction in cylLS transcripts ([1]; 100 μM, vs untreated control): 9-10 fold
inhibitory activity of culture extracts less than a sample of fresh 9 [2]: about 3 fold
stability in cultures of E. faecalis [2]: relatively good stability
quantities of CylLS” less than the untreated control ([3]; 100 µM, on average): 5.5 fold
Concentration CylLS (Figure 8C), replicates 1-4 ([3]; Conc 1 uM of 9): 1.79 nM and 1.72 nM and 1.6 nM and 1.8 nM
Concentration CylLS (Figure 8C), avg ([3]; Conc 1 uM of 9): 1.726 nM
Concentration CylLS (Figure 8C), replicates 1-4 ([3]; Conc 10 uM of 9): 2.34 nM and 2.21 nM and 2.19 nM and 2.55 nM
Concentration CylLS (Figure 8C), avg ([3]; Conc 10 uM of 9): 2.322 nM
Concentration CylLS (Figure 8C), replicates 1-4 ([3]; Conc 100 uM of 9): 0.272 nM and 0.227 nM and 0.262 nM and 0.247 nM
Concentration CylLS (Figure 8C), avg ([3]; Conc 100 uM of 9): 0.2518 nM

— PMC12304293, “Combatting virulent gut bacteria by inhibiting the biosynthesis of a two-component lanthipeptide toxin” (Nature Communications, 2025)
